According to patent US9302988B2, “Fluoromethyl-substituted pyrrole carboxamides” (GRÜNENTHAL GMBH, priority 2012, dated 2016):

Each compound was assayed against T1, Human CaV2.2 channels (Homo sapiens, UniProt Q00975) (assay: Fluorescent assay for CaV2.2 channels using potassium depolarization to induce channel opening (FLIPR, Fluo-4)). Conditions: 3 μM test compound, 30 mM KCl, HEK293 cells stably expressing human CaV2.2; read-out: %-Inhib (CaV2.2) @3 μM @30 mM KCl.
T1 construct: expressed in transfected cells
T1 sequence (Q00975 whole entry): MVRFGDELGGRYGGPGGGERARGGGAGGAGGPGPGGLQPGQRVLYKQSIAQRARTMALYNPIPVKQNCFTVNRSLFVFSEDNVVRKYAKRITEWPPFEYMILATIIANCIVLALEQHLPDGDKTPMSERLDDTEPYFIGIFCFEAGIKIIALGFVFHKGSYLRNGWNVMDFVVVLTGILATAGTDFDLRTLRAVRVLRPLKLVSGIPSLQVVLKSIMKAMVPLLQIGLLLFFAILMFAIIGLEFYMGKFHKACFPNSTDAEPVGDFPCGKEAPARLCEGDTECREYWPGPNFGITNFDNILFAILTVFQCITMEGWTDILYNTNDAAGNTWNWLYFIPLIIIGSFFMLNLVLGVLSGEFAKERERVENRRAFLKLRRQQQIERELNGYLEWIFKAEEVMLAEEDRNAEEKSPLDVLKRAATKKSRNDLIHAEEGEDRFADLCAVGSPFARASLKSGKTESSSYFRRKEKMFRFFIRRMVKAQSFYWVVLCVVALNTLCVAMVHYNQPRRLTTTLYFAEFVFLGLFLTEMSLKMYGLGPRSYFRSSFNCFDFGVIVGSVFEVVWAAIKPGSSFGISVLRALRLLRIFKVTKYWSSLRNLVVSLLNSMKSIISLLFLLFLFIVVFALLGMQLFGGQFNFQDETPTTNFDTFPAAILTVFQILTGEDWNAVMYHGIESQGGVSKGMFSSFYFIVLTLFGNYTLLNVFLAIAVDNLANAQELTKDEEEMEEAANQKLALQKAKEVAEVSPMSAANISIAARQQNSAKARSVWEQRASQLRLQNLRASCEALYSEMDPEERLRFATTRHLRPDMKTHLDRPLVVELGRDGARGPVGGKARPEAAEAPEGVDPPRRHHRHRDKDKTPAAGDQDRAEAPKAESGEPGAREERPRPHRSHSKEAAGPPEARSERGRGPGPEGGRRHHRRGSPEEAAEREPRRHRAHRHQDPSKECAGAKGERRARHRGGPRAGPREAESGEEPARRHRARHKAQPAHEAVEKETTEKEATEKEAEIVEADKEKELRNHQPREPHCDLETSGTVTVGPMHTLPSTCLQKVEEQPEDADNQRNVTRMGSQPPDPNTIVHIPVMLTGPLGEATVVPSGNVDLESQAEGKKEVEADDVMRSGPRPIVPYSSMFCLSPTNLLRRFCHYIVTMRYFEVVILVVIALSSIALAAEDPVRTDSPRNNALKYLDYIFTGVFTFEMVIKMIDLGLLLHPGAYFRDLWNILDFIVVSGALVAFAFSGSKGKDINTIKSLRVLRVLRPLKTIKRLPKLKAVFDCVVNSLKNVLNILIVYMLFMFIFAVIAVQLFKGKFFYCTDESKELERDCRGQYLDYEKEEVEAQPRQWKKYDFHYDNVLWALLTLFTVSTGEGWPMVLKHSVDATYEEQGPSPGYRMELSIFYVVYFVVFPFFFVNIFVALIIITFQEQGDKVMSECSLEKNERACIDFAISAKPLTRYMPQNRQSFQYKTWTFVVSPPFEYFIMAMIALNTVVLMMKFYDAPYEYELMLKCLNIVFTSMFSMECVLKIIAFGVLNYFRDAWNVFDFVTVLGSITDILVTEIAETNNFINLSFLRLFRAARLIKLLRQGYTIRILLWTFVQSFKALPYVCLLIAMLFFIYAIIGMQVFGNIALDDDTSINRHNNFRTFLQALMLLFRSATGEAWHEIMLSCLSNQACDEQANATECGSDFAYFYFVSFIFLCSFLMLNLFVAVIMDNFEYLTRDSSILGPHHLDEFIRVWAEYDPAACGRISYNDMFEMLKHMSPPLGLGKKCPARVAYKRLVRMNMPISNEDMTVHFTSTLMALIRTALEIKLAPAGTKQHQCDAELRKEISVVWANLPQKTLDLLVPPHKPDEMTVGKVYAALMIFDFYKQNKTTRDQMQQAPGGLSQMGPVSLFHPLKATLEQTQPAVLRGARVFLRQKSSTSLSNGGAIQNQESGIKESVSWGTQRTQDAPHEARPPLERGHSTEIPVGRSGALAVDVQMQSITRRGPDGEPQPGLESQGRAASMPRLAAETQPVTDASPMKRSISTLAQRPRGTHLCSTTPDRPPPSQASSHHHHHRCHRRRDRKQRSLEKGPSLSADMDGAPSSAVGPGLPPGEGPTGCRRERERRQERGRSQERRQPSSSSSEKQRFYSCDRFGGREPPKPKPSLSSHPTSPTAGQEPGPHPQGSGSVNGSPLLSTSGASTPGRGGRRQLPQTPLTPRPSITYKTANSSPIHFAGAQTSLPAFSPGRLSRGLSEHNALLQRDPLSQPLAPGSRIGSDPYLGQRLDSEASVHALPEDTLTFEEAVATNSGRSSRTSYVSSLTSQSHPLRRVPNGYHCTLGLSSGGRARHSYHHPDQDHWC
T1 sequence (P54289 25-1103, further chain): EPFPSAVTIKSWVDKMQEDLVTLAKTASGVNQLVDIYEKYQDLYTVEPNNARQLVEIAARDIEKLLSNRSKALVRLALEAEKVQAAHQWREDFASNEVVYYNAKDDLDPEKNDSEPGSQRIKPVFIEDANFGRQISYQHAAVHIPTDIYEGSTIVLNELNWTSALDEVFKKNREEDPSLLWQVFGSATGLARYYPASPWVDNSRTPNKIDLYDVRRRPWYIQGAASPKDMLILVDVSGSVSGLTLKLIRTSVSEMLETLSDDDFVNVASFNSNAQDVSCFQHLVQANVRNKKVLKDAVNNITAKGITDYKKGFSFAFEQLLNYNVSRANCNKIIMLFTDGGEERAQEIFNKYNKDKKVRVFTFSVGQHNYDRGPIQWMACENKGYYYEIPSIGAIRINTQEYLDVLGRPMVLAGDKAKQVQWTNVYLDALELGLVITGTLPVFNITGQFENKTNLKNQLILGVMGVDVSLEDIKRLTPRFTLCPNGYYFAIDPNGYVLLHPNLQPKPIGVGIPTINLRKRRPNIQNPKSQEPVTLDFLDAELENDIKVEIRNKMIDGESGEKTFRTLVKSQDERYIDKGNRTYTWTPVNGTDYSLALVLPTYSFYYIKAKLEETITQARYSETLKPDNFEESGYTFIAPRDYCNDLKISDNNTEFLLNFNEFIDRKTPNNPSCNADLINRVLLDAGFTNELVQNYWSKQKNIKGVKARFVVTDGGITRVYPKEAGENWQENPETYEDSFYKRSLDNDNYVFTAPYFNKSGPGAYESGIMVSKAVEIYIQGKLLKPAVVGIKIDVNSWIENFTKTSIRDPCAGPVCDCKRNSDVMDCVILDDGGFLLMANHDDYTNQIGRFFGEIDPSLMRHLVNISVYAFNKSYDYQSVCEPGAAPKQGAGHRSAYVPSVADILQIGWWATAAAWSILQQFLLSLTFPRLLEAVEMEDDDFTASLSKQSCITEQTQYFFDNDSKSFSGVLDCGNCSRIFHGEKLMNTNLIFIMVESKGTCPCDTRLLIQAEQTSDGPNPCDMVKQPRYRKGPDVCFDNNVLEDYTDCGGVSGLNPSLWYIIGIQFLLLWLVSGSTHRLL
T1 sequence (P54284 whole entry, further chain): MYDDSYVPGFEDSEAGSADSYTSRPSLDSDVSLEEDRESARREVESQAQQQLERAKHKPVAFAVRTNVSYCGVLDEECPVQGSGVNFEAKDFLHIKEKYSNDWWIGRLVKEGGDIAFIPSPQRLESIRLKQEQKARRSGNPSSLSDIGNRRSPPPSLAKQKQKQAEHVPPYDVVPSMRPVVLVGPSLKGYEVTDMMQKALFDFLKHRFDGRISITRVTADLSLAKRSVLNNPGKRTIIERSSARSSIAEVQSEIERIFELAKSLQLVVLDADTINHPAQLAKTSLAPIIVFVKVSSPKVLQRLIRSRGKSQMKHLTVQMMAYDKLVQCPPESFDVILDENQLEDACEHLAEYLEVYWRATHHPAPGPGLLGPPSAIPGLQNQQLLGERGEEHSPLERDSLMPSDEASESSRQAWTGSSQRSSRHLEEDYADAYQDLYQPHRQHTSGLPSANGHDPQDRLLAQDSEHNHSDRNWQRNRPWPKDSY
Format: cell-based
From the text: In the process, the Ca^2+ influx is quantified in the FLIPR assay with the aid of a Ca^2+-sensitive dye (type Fluo-4, Molecular Probes Europe BV, Leiden, the Netherlands) in a fluorescent imaging plate reader (FLIPR 3, Molecular Devices, Sunnyvale, USA), as described hereinafter.
2.1 Fluorescent Assay for CaV2.2 Channels Using Potassium Depolarization to Induce Channel Opening
Human CaV2.2 channels were stably expressed in HEK293 cells together with alpha2-delta and beta subunits of voltage gated calcium channels. In addition, an inwardly rectifying potassium channel (Kir2.3) was stably expressed in these cells to augment control of the cell membrane potential by the concentration of extracellular potassium ions. Raise of the extracellular potassium concentration leads to depolarization of the membrane potential and thus regulates the voltage dependent state of CaV2.2 channels. For preparation, cells were seeded in black poly-D-lysine coated 96-well plates (Becton Dickinson, Biocoat 4640) in 100 μl medium [500 ml DMEM/F-12 plus Glutamax (Invitrogen 31331-093) plus 5.5 ml MEM NEAA 100× (Invitrogen 11140-035) plus 50 ml FBS decomplemented (Invitrogen 10270-106) plus 4.4 ml Geneticin (Invitrogen 10131-027) plus 1.1 ml Hygromycin B (Invitrogen 10687-010) plus 68.75 μl Puromycin (Clontech, 631306)] at a cell density of 45.000 cells per well.
Plates were incubated at 37° C. (5% CO2) for 20 to 23 hours. On the day of experiment medium was discarded and cells were loaded with Fluo 4 by addition of 100 μl of basic assay buffer (10 mM HEPES, 30 mM KCl, 120 mM NaCl, 0.8 mM CaCl2, 1.7 mM MgCl2, 10 mM Glucose, 0.1% BSA. pH 7.4) containing 2 μM Fluo 4 (Molecular Probes; F-14201), 0.01% pluronic acid (Molecular Probes; P-6866) and 2.5 mM probenecid (Molecular Probes; P36400). Cells were incubated in the dark at 25° C. for 60 min. Then the dye containing buffer was discarded and 100 μl basic assay buffer was added. Subsequently cells were incubated in the dark at 25° C. for 15 min. 25 μl of basic assay buffer with or without test compound were added and cells were incubated again in the dark at 25° C. for 15 min. Fluorescence intensity was measured on a FLIPR 3 instrument (Molecular Devices Corp., Sunnyvale, Calif.) with excitation at 480 nm and emission at 535 nm. After continuously reading fluorescence for 30 sec, 50 μl of basic assay buffer containing 210 mM KCl (NaCl omitted) were added for depolarization. Peak fluorescent signal intensity was determined and the amplitude of the peak signal, normalized to base line, was used to measure channel inhibition by test compounds.

First: Cc1c(-c2ccc(Cl)cc2)c(C(=O)N2CC[S+]([O-])CC2)n(Cc2ccccc2)c1C(F)(F)F [SC-19, [1-Benzyl-3-(4-chlorophenyl)-4-methyl-5-(trifluoromethyl)-1H-pyrrol-2-yl]-(1-oxo-[1,4]thiazinan-4-yl)-methanone]
Second: Cc1c(-c2ccc(Cl)cc2)c(C(=O)N2CCS(=O)(=O)CC2)n(Cc2ccccc2)c1C(F)(F)F [SC-26, [1-Benzyl-3-(4-chlorophenyl)-4-methyl-5-(trifluoromethyl)-1H-pyrrol-2-yl]-(1,1-dioxo-[1,4]thiazinan-4-yl)-methanone]
The inhibition at 3 µM of the first is higher: over 95% for the first, 75 to 95% for the second.

`Cc1c(-c2ccc(Cl)cc2)c(C(=O)N2CCOC(CO)C2)n(Cc2ccccc2)c1C(F)(F)F` (centres unmarked) [SC-20, [1-Benzyl-3-(4-chlorophenyl)-4-methyl-5-(trifluoromethyl)-1H-pyrrol-2-yl]-[2-(hydroxymethyl)-morpholin-4-yl]-methanone] and `Cc1c(-c2ccc(Cl)cc2)c(C(=O)N2CCC(O)C2)n(Cc2ccccc2)c1C(F)(F)F` (centres unmarked) [SC-23, [1-Benzyl-3-(4-chlorophenyl)-4-methyl-5-(trifluoromethyl)-1H-pyrrol-2-yl]-(3-hydroxy-pyrrolidin-1-yl)-methanone] fall in the same range of inhibition at 3 µM: 75 to 95% for the first, 75 to 95% for the second.

`Cc1c(-c2ccc(Cl)cc2)c(C(=O)N(C)CC2CCOCC2)n(Cc2ccccc2)c1C(F)(F)F` [SC-21, 1-Benzyl-3-(4-chlorophenyl)-N,4-dimethyl-N-(tetrahydro-pyran-4-yl-methyl)-5-(trifluoromethyl)-1H-pyrrole-2-carboxylic acid amide] and `Cc1c(-c2ccc(Cl)cc2)c(C(=O)N(C)C2CC2)n(Cc2ccccc2)c1C(F)(F)F` [SC-34, 1-Benzyl-3-(4-chlorophenyl)-N-cyclopropyl-N,4-dimethyl-5-(trifluoromethyl)-1H-pyrrole-2-carboxylic acid amide] cannot be ordered by inhibition at 3 µM: over 95% for the first, over 95% for the second.

`CNC(=O)c1c(-c2ccc(Cl)cc2)c(C)c(C(F)(F)F)n1Cc1ccccc1` [SC-22, 1-Benzyl-3-(4-chlorophenyl)-N,4-dimethyl-5-(trifluoromethyl)-1H-pyrrole-2-carboxylic acid amide] and `Cc1c(-c2ccc(Cl)cc2)c(C(=O)NC2CC2)n(Cc2ccccc2)c1C(F)(F)F` [SC-35, 1-Benzyl-3-(4-chlorophenyl)-N-cyclopropyl-4-methyl-5-(trifluoromethyl)-1H-pyrrole-2-carboxylic acid amide] fall in the same range of inhibition at 3 µM: 75 to 95% for the first, 75 to 95% for the second.

`Cc1c(-c2ccc(Cl)cc2)c(C(=O)N(C)CCO)n(Cc2ccccc2)c1C(F)(F)F` [SC-24, 1-Benzyl-3-(4-chlorophenyl)-N-(2-hydroxy-ethyl)-N,4-dimethyl-5-(trifluoromethyl)-1H-pyrrole-2-carboxylic acid amide] and `CC(=O)NCCN(C)C(=O)c1c(-c2ccc(Cl)cc2)c(C)c(C(F)(F)F)n1Cc1ccccc1` [SC-37, N-(2-Acetylamino-ethyl)-1-benzyl-3-(4-chlorophenyl)-N,4-dimethyl-5-(trifluoromethyl)-1H-pyrrole-2-carboxylic acid amide] cannot be ordered by inhibition at 3 µM: over 95% for the first, over 95% for the second.

Compared with `Cc1c(-c2ccc(Cl)cc2)c(C(=O)N2CCOCC2)n(Cc2cccc(Cl)c2)c1C(F)(F)F` [SC-25, [3-(4-Chlorophenyl)-1-[(3-chlorophenyl)-methyl]-4-methyl-5-(trifluoromethyl)-1H-pyrrol-2-yl]-morpholin-4-yl-methanone], `Cc1c(-c2ccc(Cl)cc2)c(C(=O)N2CCOCC2)n(Cc2ccccc2)c1C(F)F` [SC-41, [1-Benzyl-3-(4-chlorophenyl)-5-(difluoro-methyl)-4-methyl-1H-pyrrol-2-yl]-morpholin-4-yl-methanone] is higher in inhibition at 3 µM: 75 to 95% for the first, over 95% for the second.

`Cc1c(-c2ccc(Cl)cc2)c(C(=O)N2CCNC(C)(C)C2)n(Cc2ccccc2)c1C(F)(F)F` [SC-29, [1-Benzyl-3-(4-chlorophenyl)-4-methyl-5-(trifluoromethyl)-1H-pyrrol-2-yl]-(3,3-dimethyl-piperazin-1-yl)-methanone] and `Cc1c(-c2ccc(Cl)cc2)c(C(=O)N2CCOC(C)(C)C2)n(Cc2ccccc2)c1C(F)(F)F` [SC-40, [1-Benzyl-3-(4-chlorophenyl)-4-methyl-5-(trifluoromethyl)-1H-pyrrol-2-yl]-(2,2-dimethyl-morpholin-4-yl)-methanone] cannot be ordered by inhibition at 3 µM: over 95% for the first, over 95% for the second.

`COc1cccc(-n2c(C(=O)N3CC(F)(F)C3)c(-c3ccc(Cl)cc3)c(C)c2C(F)(F)F)c1` [SC-32, [3-(4-Chlorophenyl)-1-(3-methoxyphenyl)-4-methyl-5-(trifluoromethyl)-1H-pyrrol-2-yl]-(3,3-difluoro-azetidin-1-yl)-methanone] and `Cc1c(-c2ccc(Cl)cc2)c(C(=O)N2CC(F)(F)C2)n(-c2cccc(Cl)c2)c1C(F)(F)F` [SC-33, [1-(3-Chlorophenyl)-3-(4-chlorophenyl)-4-methyl-5-(trifluoromethyl)-1H-pyrrol-2-yl]-(3,3-difluoro-azetidin-1-yl)-methanone] fall in the same range of inhibition at 3 µM: 75 to 95% for the first, 75 to 95% for the second.

`COC1(CNC(=O)c2c(-c3ccc(Cl)cc3)c(C)c(C(F)(F)F)n2Cc2ccccc2)CC1` [SC-36, 1-Benzyl-3-(4-chlorophenyl)-N-[(1-methoxy-cyclopropyl)-methyl]-4-methyl-5-(trifluoromethyl)-1H-pyrrole-2-carboxylic acid amide] and `Cc1c(-c2ccc(Cl)cc2)c(C(=O)N(C)C2(CO)CC2)n(Cc2ccccc2)c1C(F)(F)F` [SC-48, 1-Benzyl-3-(4-chlorophenyl)-N-[1-(hydroxymethyl)-cyclopropyl]-N,4-dimethyl-5-(trifluoromethyl)-1H-pyrrole-2-carboxylic acid amide] cannot be ordered by inhibition at 3 µM: over 95% for the first, over 95% for the second.

`Cc1c(-c2ccc(Cl)cc2)c(C(=O)N(C)CCNS(C)(=O)=O)n(Cc2ccccc2)c1C(F)(F)F` [SC-38, 1-Benzyl-3-(4-chlorophenyl)-N-[2-(methanesulfonamido)-ethyl]-N,4-dimethyl-5-(trifluoromethyl)-1H-pyrrole-2-carboxylic acid amide] and `Cc1c(-c2ccc(Cl)cc2)c(C(=O)N(C)C2(C(N)=O)CC2)n(Cc2ccccc2)c1C(F)(F)F` [SC-49, 1-Benzyl-N-(1-carbamoyl-cyclopropyl)-3-(4-chlorophenyl)-N,4-dimethyl-5-(trifluoromethyl)-1H-pyrrole-2-carboxylic acid amide] cannot be ordered by inhibition at 3 µM: over 95% for the first, over 95% for the second.

`Cc1c(-c2ccc(Cl)cc2)c(C(=O)N(C)C2CCN(C)CC2)n(Cc2ccccc2)c1C(F)(F)F` [SC-39, 1-Benzyl-3-(4-chlorophenyl)-N,4-dimethyl-N-(1-methyl-piperidin-4-yl)-5-(trifluoromethyl)-1H-pyrrole-2-carboxylic acid amide] and `Cc1c(-c2ccc(Cl)cc2)c(C(=O)N(C)CC(C)(C)C)n(Cc2ccccc2)c1C(F)F` [SC-42, 1-Benzyl-3-(4-chlorophenyl)-5-(difluoro-methyl)-N-(2,2-dimethyl-propyl)-N,4-dimethyl-1H-pyrrole-2-carboxylic acid amide] cannot be ordered by inhibition at 3 µM: over 95% for the first, over 95% for the second.

`Cc1c(-c2ccc(Cl)cc2)c(C(=O)N2CC(F)(F)C2)n(-c2ccc(Cl)cc2)c1C(F)(F)F` [SC-44, [1,3-Bis(4-chlorophenyl)-4-methyl-5-(trifluoromethyl)-1H-pyrrol-2-yl]-(3,3-difluoro-azetidin-1-yl)-methanone] showed an inhibition at 3 µM of 75 to 95%.
